Source: publication PMC4467398, “Preclinical antitumor activity of ST7612AA1: a new oral thiol-based histone deacetylase (HDAC) inhibitor” (Oncotarget, 2014)
Read-outs that look alike come from different tables or passages of the source.

Legend:
[1] = system: cell lines derived from epithelial cancers (lung, breast, colon, ovarian) and from leukemias and lymphomas; assay: In vitro proliferation assay, first broad panel (summary); type: cell-based; conditions: first broad panel of human tumor cell lines; read-out: IC50 values, range over the panel
Protocol: (§1) Anti-proliferative activity was first assessed on a panel of cell lines derived from solid tumors and hematological cancers and then on a large panel of cell lines derived from mature B-cell lymphomas. […] Lymphoma cells were seeded in 96-wells tissue culture plates in complete medium and were exposed to increasing concentrations of ST7612AA1 for 48 or 72 h; the anti-proliferative activity was assessed using 3-(4,5-dimethylthiazol-2-yl)-2,5-diphenyltetrazolium bromide (MTT). The drug potency was evaluated by means of the “ALLFIT” computer program and defined as IC50 (drug concentration required for 50% inhibition of cell survival).

[2] = system: Ovarian cancer SKOV-3; assay: In vitro proliferation assay (sulphorodamine B); type: cell-based; conditions: Homo sapiens, SK-OV-3, 72 h, mean ± S.E.M.
[3] = system: mature B cell lymphomas; assay: In vitro proliferation assay, lymphoma panel (summary); type: cell-based; conditions: Homo sapiens, different mature B cell lymphomas
Protocol: as §1

[4] = system: GCB-DLBCL cell lines; assay: as above; type: cell-based; conditions: Homo sapiens
Protocol: as §1

[5] = system: splenic marginal zone lymphoma (SMZL) cell lines; assay: as above; type: cell-based; conditions: Homo sapiens
Protocol: as §1

[6] = system: mantle cell lymphoma (MCL) cell lines; assay: as above; type: cell-based; conditions: Homo sapiens
Protocol: as §1

[7] = system: ABC-DLBCL cell lines; assay: as above; type: cell-based; conditions: Homo sapiens
Protocol: as §1

[8] = system: Ovarian cancer A2780; assay: In vitro proliferation assay (sulphorodamine B); type: cell-based; conditions: Homo sapiens, 72 h, mean ± S.E.M.
[9] = PK sampling and analysis after a single oral dose of ST7612AA1 (plasma, LC-MS/MS); type: in vivo, CD1 mice; conditions: single oral dose of 120 mg/kg; limit of quantification 25 ng/mL
Protocol: CD1 nude mice were used. Male mice were treated with a single dose of ST7612AA1 at 120 mg/10 mL/kg p.o., using 5% Solutol HS 15 in water for injection as vehicle. Blood samples were collected at 0.25, 0.5, 1, 2, 4 and 6 h post treatment from 5 animals per time point. Levels of ST7612AA1 and ST7464AA1 were determined in plasma by quantitative LC-MS/MS having a limit of quantification of 25 ng/mL. The PK parameters Cmax (maximum plasma concentration), Tmax (time of maximum plasma concentration), Clast (last quantifiable concentration), Tlast (time of last quantifiable plasma concentration), AUClast (area under the concentration vs time curve from 0 to Tlast), AUCINF (area under the concentration vs time curve from 0 to infinity), T1/2 (terminal half-life), CL/F (apparent systemic clearance) and Vz/F (apparent terminal volume of distribution) were derived from the analyte plasma concentration vs time data according to a model independent approach for sparse data sampling by using Phoenix WinNonlin® ver. 6.3 software (Pharsight, Cetara).

[10] = system: Acute myeloid leukemia U937; assay: In vitro proliferation assay (sulphorodamine B); type: cell-based; conditions: Homo sapiens, U-937, 72 h, mean ± S.E.M.
[11] = system: NSCLC NCI-H1975; assay: In vitro proliferation assay (sulphorodamine B); type: cell-based; conditions: Homo sapiens, 72 h, mean ± S.E.M.

**Q.** For CC(=O)SCCCCC[C@H](NC(=O)[C@H]1CCC(=O)N1)C(=O)Nc1ccccc1 [ST7612AA1], which IC50 [1] is on record?
**A.** 43 to 500 nM

**Q.** And the IC50 [2]?
**A.** 380 nM

**Q.** What about the IC50 ([3]; read-out: IC50 range) of the same compound?
**A.** 46 to 2660 nM

**Q.** And the IC50 ([3]; read-out: median IC50)?
**A.** 375 nM

**Q.** And the IC50 ([4]; read-out: IC50 range)?
**A.** 46 to 2660 nM

**Q.** And the IC50 ([4]; read-out: median IC50)?
**A.** 597 nM

**Q.** And the IC50 ([5]; read-out: IC50 range)?
**A.** 102 to 257 nM

**Q.** What about the IC50 ([5]; read-out: median IC50) of the same compound?
**A.** 119 nM

**Q.** And the IC50 ([6]; read-out: IC50 range)?
**A.** 248 to 553 nM

**Q.** What about the IC50 ([6]; read-out: median IC50) of the same compound?
**A.** 433 nM

**Q.** What about the IC50 ([7]; read-out: IC50 range) of the same compound?
**A.** 101 to 805 nM

**Q.** What about the IC50 ([7]; read-out: median IC50) of the same compound?
**A.** 257 nM

**Q.** What about the IC50 [8] of the same compound?
**A.** 43 ± 10 nM

**Q.** And the “ST7612AA1 in plasma after oral administration” value [9]?
**A.** not detected

**Q.** And the IC50 [10]?
**A.** 49 nM

**Q.** And the IC50 [11]?
**A.** 500 nM
